Drawing on ChEMBL document CHEMBL1150189, “Determination of cardenolides in hairy root cultures of Digitalis lanata by enzyme-linked immunosorbent assay” (J Nat Prod, 1990), this text covers Ratio IC50 for 11 compounds.

Each structure is given as a SMILES string.

The species named for this assay is Mus musculus. The experiment in a line: Binding affinity to mouse Monoclonal antibody DIG 64.2B.5 by ELISA relative to digoxin. A general note: In an ELISA, binding on a coated surface is turned into a signal by an enzyme label.
As for `CO[C@@H]1[C@@H](O)[C@H](O[C@H]2CC[C@@]3(C)[C@H](CC[C@@H]4[C@@H]3CC[C@]3(C)[C@@H](C5=CC(=O)OC5)[C@@H](O)C[C@]43O)C2)O[C@H](C)[C@@H]1O[C@@H]1O[C@H](CO)[C@@H](O)[C@H](O)[C@H]1O`, the Ratio IC50 is 16000.
Regarding `C[C@@H]1CC[C@@]2(OC1)O[C@H]1[C@@H](O)[C@H]3[C@@H]4CC[C@H]5C[C@@H](O[C@@H]6O[C@H](CO)[C@H](O[C@@H]7O[C@H](CO)C(O)[C@H](O[C@@H]8OC[C@@H](O)[C@H](O)[C@H]8O)[C@H]7O[C@@H]7O[C@H](CO)[C@H](O)[C@H](O[C@@H]8O[C@H](CO)[C@@H](O)[C@H](O)[C@H]8O)[C@H]7O)[C@H](O)[C@H]6O)[C@H](O)C[C@]5(C)[C@H]4CC[C@]3(C)[C@H]1[C@@H]2C` (stereo partly specified), the Ratio IC50 was more than 6e+06.
The figure for `CC(=O)O[C@H]1C[C@H](O[C@H]2[C@@H](O)C[C@H](O[C@H]3[C@@H](O)C[C@H](O[C@H]4CC[C@@]5(C)[C@H](CC[C@@H]6[C@@H]5C[C@@H](O)[C@]5(C)[C@@H](C7=CC(=O)OC7)CC[C@]65O)C4)O[C@@H]3C)O[C@@H]2C)O[C@H](C)[C@H]1O[C@@H]1O[C@H](CO)[C@@H](O)[C@H](O)[C@H]1O` is 1.2.
The figure for `C[C@@H]1O[C@@H](O[C@H]2C[C@@H](O)[C@]3(CO)[C@H]4[C@H](O)C[C@]5(C)[C@@H](C6=CC(=O)OC6)CC[C@]5(O)[C@@H]4CC[C@]3(O)C2)[C@H](O)[C@H](O)[C@H]1O` is more than 6e+06; for `C[C@]12CC[C@H](O)C[C@H]1CC[C@@H]1[C@@H]2C[C@@H](O)[C@]2(C)[C@@H](C3=CC(=O)OC3)CC[C@]12O` it is 1.2; for `C[C@]12CC[C@H](O)C[C@H]1CC[C@@H]1[C@@H]2CC[C@]2(C)[C@@H](C3=CC(=O)OC3)[C@@H](O)C[C@]12O` it is more than 540000.
As for `C[C@H]1O[C@@H](O[C@H]2[C@@H](O)C[C@H](O[C@H]3[C@@H](O)C[C@H](O[C@H]4CC[C@@]5(C)[C@H](CC[C@@H]6[C@@H]5CC[C@]5(C)[C@@H](C7=CC(=O)OC7)CC[C@]65O)C4)O[C@@H]3C)O[C@@H]2C)C[C@H](O)[C@@H]1O`, the Ratio IC50 is 2800.
The same measure for `C[C@H]1O[C@@H](O[C@H]2CC[C@@]3(C)[C@H](CC[C@@H]4[C@@H]3C[C@@H](O)[C@]3(C)[C@@H](C5=CC(=O)OC5)CC[C@]43O)C2)C[C@H](O)[C@@H]1O[C@H]1C[C@H](O)[C@H](O[C@H]2C[C@H](O)[C@H](O[C@@H]3O[C@H](CO)[C@@H](O)[C@H](O)[C@H]3O)[C@@H](C)O2)[C@@H](C)O1`: 1.8; for `C[C@H]1OC(O)C[C@H](O)[C@@H]1O` (stereo partly specified): more than 1.2e+08; for `C[C@H]1O[C@@H](O[C@H]2[C@@H](O)C[C@H](O[C@H]3[C@@H](O)C[C@H](O[C@H]4CC[C@@]5(C)[C@H](CC[C@@H]6[C@@H]5CC[C@]5(C)[C@@H](C7=CC(=O)OC7)[C@@H](O)C[C@]65O)C4)O[C@@H]3C)O[C@@H]2C)C[C@H](O)[C@@H]1O`: 46.
`C[C@]12CC[C@H](O)C[C@H]1CC[C@@H]1[C@@H]2CC[C@]2(C)[C@@H](C3=CC(=O)OC3)CC[C@]12O`: the Ratio IC50 amounted to 23000.
